The source of these data is ChEMBL document CHEMBL1147182, “Clubbed thiazoles by MAOS: a novel approach to cyclin-dependent kinase 5/p25 inhibitors as a potential treatment for Alzheimer's disease” (Bioorg Med Chem, 2007).

The species named for one data set is Homo sapiens. As to the kind of experiment: Selectivity for human cdk5/[…] over human cdk2/cyclin E.
A short description of data set [1]: Cytotoxicity against VeroC1008 cells at 6.25 to 50 ug/ml by neutral red uptake assay. Type of data set: cell-based. Conditions: chlorocebus sabaeus, vero.
Data set [2] concerns the target Cyclin-dependent kinase 2/cyclin E (Homo sapiens, UniProt P24941). The data set can be described thus: Inhibition of human cdk2/cyclin E by SPA. The format is protein-complex assay.
Data set [3] addresses Cyclin-dependent kinase 5/CDK5 activator 1 (Homo sapiens, UniProt Q00535). The data set can be described thus: Inhibition of human cdk5/p25 by SPA. Type of data set: protein-complex assay.

Sequence of Cyclin-dependent kinase 5/CDK5 activator 1 (Q00535 whole entry): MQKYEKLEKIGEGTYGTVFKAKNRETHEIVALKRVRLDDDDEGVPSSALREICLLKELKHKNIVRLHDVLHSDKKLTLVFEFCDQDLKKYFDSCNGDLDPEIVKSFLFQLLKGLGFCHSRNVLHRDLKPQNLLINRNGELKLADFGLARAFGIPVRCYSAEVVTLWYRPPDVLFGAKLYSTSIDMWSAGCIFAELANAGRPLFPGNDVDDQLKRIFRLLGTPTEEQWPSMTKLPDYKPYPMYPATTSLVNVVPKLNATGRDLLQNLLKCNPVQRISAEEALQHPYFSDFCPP
Sequence of Cyclin-dependent kinase 5/CDK5 activator 1 (Q15078 whole entry, further chain): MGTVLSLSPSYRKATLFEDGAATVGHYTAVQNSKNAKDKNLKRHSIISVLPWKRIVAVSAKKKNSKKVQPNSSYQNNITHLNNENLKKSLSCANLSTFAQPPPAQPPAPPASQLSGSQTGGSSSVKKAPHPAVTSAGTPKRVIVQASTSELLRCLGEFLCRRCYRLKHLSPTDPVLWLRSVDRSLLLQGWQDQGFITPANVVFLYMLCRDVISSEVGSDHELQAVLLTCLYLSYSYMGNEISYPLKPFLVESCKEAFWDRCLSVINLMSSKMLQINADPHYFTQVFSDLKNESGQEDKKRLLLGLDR

Usually IC50 stands for the concentration needed to halve the response being measured. A higher IC50 goes with weaker potency in that assay. In the case of `CC(=O)Nc1nc(Cc2nnc(S)n2N)cs1`, the Ratio IC50 in the data set filed under Homo sapiens turned out to be 1. The Activity result in data set [1] is reported as “Non-toxic”. The IC50 was 0.05 µM in data set [2] and 0.048 µM in data set [3].
For `N#CCSc1nnc(Cc2csc(NC(=O)c3ccccc3)n2)n1NC(=O)c1ccc(Cl)cc1`, in that order: 21, “Non-toxic”, 1.34 µM and 0.064 µM.
Turning to `O=C(CSc1nnc(Cc2csc(NC(=O)CCl)n2)n1NC(=O)c1ccc(Cl)cc1)N/N=C/c1ccccc1`, the Ratio IC50 in the data set filed under Homo sapiens came out at 1.2. In addition, in data set [1], the Activity result is “Non-toxic”. Further, the IC50 in data set [2] turned out to be 0.051 µM; in data set [3], 0.042 µM.
For `NNC(=O)CSc1nnc(Cc2csc(NCCC(=O)O)n2)n1NC(=O)c1ccc(Cl)cc1` the same measures were 99, “Non-toxic”, 6.34 µM and 0.064 µM.
Take `CC(=O)Nc1nc(Cc2nnc(SCC#N)n2NC(=O)c2ccc(Cl)cc2)cs1`: in the data set filed under Homo sapiens, the Ratio IC50 turned out to be 18.3. In data set [1], the Activity entry is reported as “Non-toxic”. For the same compound, the results for the IC50 in data set [2] and in data set [3] were 1.14 µM and 0.062 µM, respectively.
For `CC(=O)Nc1nc(Cc2nnc(SCC(=O)NN)n2NC(=O)c2ccc(Cl)cc2)cs1`, in that order: 8.6, “Non-toxic”, 0.624 µM and 0.072 µM.
